Key:
Assay type in all cases: in vivo, C57BL/6 mice
[1] = Spleen weight after mobilization treatment
Description: Additional HIF-α potentiating agents in the form of PHD inhibitors were tested for their ability to enhance mobilization induced by G-CSF. Compound A, Compound B or Compound C, were tested in male, 7 weeks-old C57BL/6 mice. Mice were injected twice daily sub-cutaneously with rhuG-CSF at a dose of 125 μg/kg per injection for four days. […]
(§1) At the end of treatment, blood was harvested by cardiac puncture, mice were sacrificed by cervical dislocation and spleens harvested. Femurs were removed, cleaned and the bone marrow was flushed with 1 mL PBS+10% newborn calf serum (NCS).

white blood cells = assay: White blood cell number per mL of blood after mobilization treatment; settings: Example 6: 20 mg/kg + G-CSF vs vehicle + G-CSF; FIG. 11
Description: (§2) Additional HIF-α potentiating agents in the form of PHD inhibitors were tested for their ability to enhance mobilization induced by G-CSF. Compound A, Compound B or Compound C, were tested in male, 7 weeks-old C57BL/6 mice. Mice were injected twice daily sub-cutaneously with rhuG-CSF at a dose of 125 μg/kg per injection for four days. Mice were gavaged with 20 mg/kg Compound A, Compound B, Compound C or vehicle control once daily for three days beginning on day 1 of the experiment.
as §1

[2] = tested on: hematopoietic stem and progenitor cells; assay: Phenotypic HSCs, HSPCs and myeloid progenitors in blood, spleen and bone marrow by flow cytometry; settings: for mobilization of myeloid progenitors (LKS−) to the blood / increase in mobilization of myeloid progenitors (LKS−) to the spleen / increase in number of HSPCs (LSK48+ and LSK) mobilized to the spleen / increase in number of phenotypic HSCs (LSK48−150+) mobilized to the spleen: Example 6: 20 mg/kg + G-CSF vs vehicle + G-CSF; for increase in mobilization of myeloid progenitors (LKS−) to the spleen / increase in number of HSPCs (LSK48+ and LSK) mobilized to the spleen / increase in number of phenotypic HSCs (LSK48−150+) mobilized to the spleen: FIGS. 8A-B; for total number of phenotypic HSPCs in the bone marrow: Example 6: 20 mg/kg once daily 3 days + rhuG-CSF 125 μg/kg twice daily 4 days vs vehicle + G-CSF, FIGS. 6A-B; for increase in total number of HSPCs (LSK48+ and LSK) mobilized from the bone marrow / increase in total number of myeloid progenitors (LKS−) mobilized from the bone marrow / increase in total number of phenotypic HSCs (LSK48−150+) mobilized from the bone marrow: Example 6: blood and spleen, 20 mg/kg + G-CSF vs vehicle + G-CSF, FIGS. 9A-B; for total number of HSPCs (LSK48+ and LSK) mobilized blood and spleen / total number of phenotypic HSCs (LSK48−150+) mobilized blood and spleen: Example 8: 60 mg/kg + G-CSF vs vehicle + G-CSF, FIGS. 14A-B
Description: as §2, §1
(§3) The number of phenotypic hematopoietic stem and progenitor cells remaining in the bone marrow following treatment was measured by flow cytometry using antibodies specific for lineage markers (CD3, CD5, CD45R/B220, F4/80, Gr1, CD41, Ter119), Sca-1, Kit, CD48 and CD150. Similarly, the number of phenotypic hematopoietic stem cells mobilized into the blood and spleen were measured. Colony assays were also performed on blood and spleen to determine the number of colony forming cells per mL of blood and per spleen. All results are presented as mean f standard deviation with n=6 per groups. Levels of significance for differences were calculated using the Student's t-test.
All procedures were approved by the animal experimentation ethics committee of the University of Queensland. All experiments were performed on nine to twelve-week old C57BL/6 male mice or genetically modified mice back-crossed at least 10 times into C57BL/6. Recombinant human G-CSF (Amgen, Thousand Oaks, Calif.) was injected twice daily subcutaneously at 125 μg/kg per injection for up to 4 consecutive days. Plerixafor (AMD3100 octohydrochloride, Tocris Bioscience, Bristol, UK) was injected intraperitoneally as a single 16 mg/kg dose corresponding to 10 mg/kg of AMD3100 base. Tissues were harvested 1 h after Plerixafor administration. […] Compounds H and J were administered at 60 mg/kg and Compound K was administered at 100 mg/kg. Control mice were injected with an equivalent volume of saline. At specified time-points, mice were anesthetized with isoflurane before cardiac puncture to harvest blood. Mice were then euthanized by cervical dislocation and BM and bones harvested.
Following flushing with PBS plus 2% NCS, enriched central BM cells were pelleted at 370×g for 5 minutes at 4° C. and resuspended in CD16/CD32 hybridoma 2.4G2 supernatant to block IgGFc receptors. HSCs were stained with the biotinylated lineage antibody cocktail (CD3, CD5, B220, CD11b, Gr-1, Ter119) and biotinylated CD41 together with streptavidin (SAV)-Pacific Blue, anti-Sca-1-PECY7, anti-KIT-APC, CD48-FITC and CD150-PE as previously described (17). Data were acquired on a CyAn (Dako Cytomation) flow cytometer and analyzed following compensation with single color controls using FlowJo software (Tree Star, Ashland, Oreg.).

[3] = tested on: colony-forming cells (CFCs); assay: Mobilization of colony-forming cells (CFC/CFU) to blood and spleen, colony assays; settings: for number of colony forming units mobilized to the spleen / total number (blood and spleen) of mobilized CFUs: Example 8: H and J 60 mg/kg, K 100 mg/kg
Description: Mobilization of colony-forming cells (CFCs) to the blood and spleen were measured (FIG. 1B).
This was divided into two experiments in which G-CSF was administered for 2 days in one experiment and 4 days in the other (FIG. 2). […] Mobilization of CFCs, phenotypic Lin^−CD41^−Sca1^+Kit^+ HSPCs and Lin^−CD41^− Sca1^+Kit^+CD48^−CD150^+ HSCs were measured in blood and spleens.
Additional HIF-α potentiating agents in the form of PHD inhibitors were tested for their ability to enhance mobilization induced by G-CSF.
as §1
as §3, with “All results are presented as mean f standard deviation with n=6 per groups.” left out
All procedures were approved by the animal experimentation ethics committee of the University of Queensland. […] Plerixafor (AMD3100 octohydrochloride, Tocris Bioscience, Bristol, UK) was injected intraperitoneally as a single 16 mg/kg dose corresponding to 10 mg/kg of AMD3100 base. Tissues were harvested 1 h after Plerixafor administration. […] Control mice were injected with an equivalent volume of saline. At specified time-points, mice were anesthetized with isoflurane before cardiac puncture to harvest blood. Mice were then euthanized by cervical dislocation and BM and bones harvested.
Optimal concentrations of mouse IL-3, IL-6 and soluble kit ligand were added as conditioned media from stably transfected BHK cell lines. Colonies were counted after 7 days culture at 37° C. in a humidified incubator containing 5% CO2.

[4] = Example 6: 20 mg/kg + G-CSF vs vehicle + G-CSF, FIG. 11
[5] = Example 6: 20 mg/kg + G-CSF vs vehicle + G-CSF, FIG. 10
[6] = Example 7: 20 mg/kg + G-CSF vs vehicle + G-CSF, FIGS. 12A-B
[7] = Example 8: H and J 60 mg/kg, K 100 mg/kg, + G-CSF vs vehicle + G-CSF
[8] = + G-CSF vs vehicle + G-CSF, FIG. 15

SMILES: N#Cc1nc(C(=O)NCC(=O)O)c(O)c2c(Oc3ccc(Cl)cc3)cccc12 [Compound A, {[5-(4-Chloro-phenoxy)-1-cyano-4-hydroxy-isoquinoline-3-carbonyl]-amino}-acetic acid]
- increase in spleen weight [1, 4]: approximately 2 fold
- number of white blood cells per mL of blood (white blood cells): significant increase
- mobilization of myeloid progenitors (LKS−) to the blood [2]: did not significantly alter
- increase in mobilization of myeloid progenitors (LKS−) to the spleen [2]: approximately 3 fold
- increase in number of HSPCs (LSK48+ and LSK) mobilized to the spleen [2]: approximately 2 fold
- increase in number of phenotypic HSCs (LSK48−150+) mobilized to the spleen [2]: approximately 2 fold
- total number of phenotypic HSPCs in the bone marrow [2]: did not significantly alter
- increase in total number of HSPCs (LSK48+ and LSK) mobilized from the bone marrow [2]: approximately 2 fold
- increase in total number of myeloid progenitors (LKS−) mobilized from the bone marrow [2]: approximately 6 fold
- increase in total number of phenotypic HSCs (LSK48−150+) mobilized from the bone marrow [2]: approximately 2 fold
- number of colony forming units mobilized to the blood [3, 5]: significantly increased

SMILES: N#Cc1nc(C(=O)NCC(=O)O)c(O)c2c(Oc3ccccc3)cccc12 [Compound B, [(1-Cyano-4-hydroxy-5-phenoxy-isoquinoline-3-carbonyl)-amino]-acetic acid]
- increase in spleen weight [1, 4]: approximately 2 fold
- number of white blood cells per mL of blood (white blood cells): significant increase
- mobilization of myeloid progenitors (LKS−) to the blood [2]: did not significantly alter
- increase in mobilization of myeloid progenitors (LKS−) to the spleen [2]: approximately 3 fold
- increase in number of HSPCs (LSK48+ and LSK) mobilized to the spleen [2]: approximately 2 fold
- increase in number of phenotypic HSCs (LSK48−150+) mobilized to the spleen [2]: approximately 2 fold
- total number of phenotypic HSPCs in the bone marrow [2]: did not significantly alter
- increase in total number of HSPCs (LSK48+ and LSK) mobilized from the bone marrow [2]: approximately 2 fold
- increase in total number of myeloid progenitors (LKS−) mobilized from the bone marrow [2]: approximately 6 fold
- increase in total number of phenotypic HSCs (LSK48−150+) mobilized from the bone marrow [2]: approximately 2 fold
- number of CFUs mobilized to the spleen [3, 5]: statistically significant
- number of colony forming units mobilized to the blood [3, 5]: no significant change
- total number of CFUs mobilized, relative to Compound A or Compound C with G-CSF ([3]; Example 6: 20 mg/kg + G-CSF, FIG. 10): comparable

SMILES: N#Cc1nc(C(=O)NCC(=O)O)c(O)c2ccn(Cc3ccccc3F)c12 [Compound C, {[7-Cyano-1-(2-fluoro-benzyl)-4-hydroxy-1H-pyrrolo[2,3-c]pyridine-5-carbonyl]-amino}-acetic acid]
- increase in spleen weight [1, 4]: approximately 2 fold
- number of white blood cells per mL of blood (white blood cells): significant increase
- mobilization of myeloid progenitors (LKS−) to the blood [2]: did not significantly alter
- increase in mobilization of myeloid progenitors (LKS−) to the spleen [2]: approximately 3 fold
- increase in number of HSPCs (LSK48+ and LSK) mobilized to the spleen [2]: approximately 2 fold
- increase in number of phenotypic HSCs (LSK48−150+) mobilized to the spleen [2]: approximately 2 fold
- total number of phenotypic HSPCs in the bone marrow [2]: did not significantly alter
- increase in total number of HSPCs (LSK48+ and LSK) mobilized from the bone marrow [2]: approximately 2 fold
- increase in total number of myeloid progenitors (LKS−) mobilized from the bone marrow [2]: approximately 6 fold
- increase in total number of phenotypic HSCs (LSK48−150+) mobilized from the bone marrow [2]: approximately 2 fold
- number of colony forming units mobilized to the blood [3, 5]: significantly increased

SMILES: O=c1c(-n2ccnn2)c[nH]n1-c1cc(N2CCOCC2)ncn1 [Compound F, 2-(6-Morpholin-4-yl-pyrimidin-4-yl)-4-[1,2,3]triazol-1-yl-1,2-dihydro-pyrazol-3-one]
- increase in spleen weight ([1]; Example 7: D 60 mg/kg, E and F 20 mg/kg, + G-CSF vs vehicle + G-CSF): approximately 2 fold
- total number of HSCs (LSK48-150+) mobilized from the bone marrow [2, 6]: significant increase
- total number of HSPCs (LSK48+ and LSK) mobilized from the bone marrow [2, 6]: significant increase
- total number of HSCs and progenitors in the BM ([2]; Example 7: Compound D 60 mg/kg, E and F 20 mg/kg, + G-CSF vs vehicle + G-CSF): did not significantly alter
- total number of myeloid progenitors (LKS−) mobilized ([2]; Example 7: D 60 mg/kg, E and F 20 mg/kg, + G-CSF vs vehicle + G-CSF, FIGS. 12A-B): significant increase
- number of CFUs mobilized from the bone marrow to the blood and spleen ([3]; Example 7: D 60 mg/kg, E and F 20 mg/kg, + G-CSF vs vehicle + G-CSF, FIG. 13): significantly increased

SMILES: O=C(O)CNC(=O)c1ncc2cc(Oc3ccccc3)ccc2c1O [Compound H, [(4-Hydroxy-7-phenoxy-isoquinoline-3-carbonyl)-amino]-acetic acid]
- total number of HSPCs (LSK48+ and LSK) mobilized blood and spleen [2]: significant increase
- total number of phenotypic HSCs (LSK48−150+) mobilized blood and spleen [2]: significant increase
- total number of HSCs and progenitors in the BM [2, 7]: did not significantly alter
- number of colony forming units mobilized to the spleen [3, 8]: significant increase
- total number (blood and spleen) of mobilized CFUs [3, 8]: significant increase

SMILES: COc1ccc(Oc2ccc3c(O)c(C(=O)NCC(=O)O)ncc3c2)cc1 [Compound J, {[4-Hydroxy-7-(4-methoxy-phenoxy)-isoquinoline-3-carbonyl]-amino}-acetic acid]
- total number of HSPCs (LSK48+ and LSK) mobilized blood and spleen [2]: significant increase
- total number of phenotypic HSCs (LSK48−150+) mobilized blood and spleen [2]: significant increase
- total number of HSCs and progenitors in the BM [2, 7]: did not significantly alter
- number of colony forming units mobilized to the blood ([3]; Example 8: 60 mg/kg + G-CSF vs vehicle control, FIG. 15): significant increase
- number of colony forming units mobilized to the spleen [3, 8]: significant increase
- total number (blood and spleen) of mobilized CFUs [3, 8]: significant increase

SMILES: O=C(O)CNC(=O)c1ncc(-c2cccc(F)c2)cc1O [Compound K, {[5-(3-Fluoro-phenyl)-3-hydroxy-pyridine-2-carbonyl]-amino}-acetic acid]
- total number of HSCs and progenitors in the BM [2, 7]: did not significantly alter
- number of colony forming units mobilized to the spleen [3, 8]: no significant change
- total number (blood and spleen) of mobilized CFUs [3, 8]: no significant change
